The source of these data is ChEMBL document CHEMBL1150977, “A quantitative analysis of kinase inhibitor selectivity” (Nat Biotechnol, 2008).

Where only a bound is given, the exact number is not on record here.

The target in one assay is T1, Ephrin type-B receptor 3 (Homo sapiens, UniProt P54753).
T1 sequence (P54753 whole entry): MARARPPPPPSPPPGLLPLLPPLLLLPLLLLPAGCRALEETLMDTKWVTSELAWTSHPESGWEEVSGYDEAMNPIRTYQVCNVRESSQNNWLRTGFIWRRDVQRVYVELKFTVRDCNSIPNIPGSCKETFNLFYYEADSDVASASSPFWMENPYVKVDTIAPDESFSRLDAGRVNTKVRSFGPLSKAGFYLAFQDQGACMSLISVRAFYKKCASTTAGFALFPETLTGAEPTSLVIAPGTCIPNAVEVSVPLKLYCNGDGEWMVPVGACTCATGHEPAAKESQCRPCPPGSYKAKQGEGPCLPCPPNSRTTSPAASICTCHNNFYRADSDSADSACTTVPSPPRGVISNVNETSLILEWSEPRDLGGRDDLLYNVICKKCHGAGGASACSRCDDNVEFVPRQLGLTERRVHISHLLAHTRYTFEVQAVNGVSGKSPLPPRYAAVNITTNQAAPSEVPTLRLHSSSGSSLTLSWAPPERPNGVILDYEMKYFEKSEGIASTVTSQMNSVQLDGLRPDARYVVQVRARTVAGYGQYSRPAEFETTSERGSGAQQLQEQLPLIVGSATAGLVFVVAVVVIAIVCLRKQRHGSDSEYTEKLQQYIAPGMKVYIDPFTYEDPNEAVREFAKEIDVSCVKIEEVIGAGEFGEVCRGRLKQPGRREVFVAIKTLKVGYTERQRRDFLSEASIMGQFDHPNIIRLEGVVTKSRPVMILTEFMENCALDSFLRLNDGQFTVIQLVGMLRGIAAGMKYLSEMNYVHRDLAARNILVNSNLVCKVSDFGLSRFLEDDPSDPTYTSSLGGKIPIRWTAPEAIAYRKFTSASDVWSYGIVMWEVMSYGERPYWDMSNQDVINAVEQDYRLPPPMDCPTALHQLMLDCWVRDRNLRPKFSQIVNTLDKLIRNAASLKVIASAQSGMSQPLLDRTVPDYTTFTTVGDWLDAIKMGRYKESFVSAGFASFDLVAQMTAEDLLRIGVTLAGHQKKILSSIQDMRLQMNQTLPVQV

Assay [1] deals with T2, Serine/threonine-protein kinase TNNI3K (Homo sapiens, UniProt Q59H18).
T2 sequence (Q59H18 whole entry): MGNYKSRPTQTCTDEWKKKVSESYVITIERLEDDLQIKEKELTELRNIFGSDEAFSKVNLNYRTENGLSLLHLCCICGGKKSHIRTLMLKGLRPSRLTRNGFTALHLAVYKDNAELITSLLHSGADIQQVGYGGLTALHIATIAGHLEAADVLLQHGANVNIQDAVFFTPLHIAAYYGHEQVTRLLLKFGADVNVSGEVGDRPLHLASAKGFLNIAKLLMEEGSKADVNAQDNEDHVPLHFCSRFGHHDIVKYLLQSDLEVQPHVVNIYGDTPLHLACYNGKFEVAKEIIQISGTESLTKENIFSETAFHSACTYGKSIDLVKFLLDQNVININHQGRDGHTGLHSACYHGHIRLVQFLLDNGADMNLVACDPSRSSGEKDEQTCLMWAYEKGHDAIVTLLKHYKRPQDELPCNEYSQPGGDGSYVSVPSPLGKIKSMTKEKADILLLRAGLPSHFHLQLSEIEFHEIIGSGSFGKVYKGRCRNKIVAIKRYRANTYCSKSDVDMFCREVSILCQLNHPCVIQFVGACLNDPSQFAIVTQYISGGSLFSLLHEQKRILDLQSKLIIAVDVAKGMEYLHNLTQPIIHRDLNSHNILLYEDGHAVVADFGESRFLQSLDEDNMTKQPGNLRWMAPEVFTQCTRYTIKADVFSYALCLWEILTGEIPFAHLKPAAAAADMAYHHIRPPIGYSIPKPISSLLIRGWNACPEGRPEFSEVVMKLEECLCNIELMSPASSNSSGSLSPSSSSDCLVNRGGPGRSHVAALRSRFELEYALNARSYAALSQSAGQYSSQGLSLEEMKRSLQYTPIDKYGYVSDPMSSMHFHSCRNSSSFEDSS

In another assay the target is T3, Ephrin type-B receptor 2 (Homo sapiens, UniProt P29323).
T3 sequence (P29323 whole entry): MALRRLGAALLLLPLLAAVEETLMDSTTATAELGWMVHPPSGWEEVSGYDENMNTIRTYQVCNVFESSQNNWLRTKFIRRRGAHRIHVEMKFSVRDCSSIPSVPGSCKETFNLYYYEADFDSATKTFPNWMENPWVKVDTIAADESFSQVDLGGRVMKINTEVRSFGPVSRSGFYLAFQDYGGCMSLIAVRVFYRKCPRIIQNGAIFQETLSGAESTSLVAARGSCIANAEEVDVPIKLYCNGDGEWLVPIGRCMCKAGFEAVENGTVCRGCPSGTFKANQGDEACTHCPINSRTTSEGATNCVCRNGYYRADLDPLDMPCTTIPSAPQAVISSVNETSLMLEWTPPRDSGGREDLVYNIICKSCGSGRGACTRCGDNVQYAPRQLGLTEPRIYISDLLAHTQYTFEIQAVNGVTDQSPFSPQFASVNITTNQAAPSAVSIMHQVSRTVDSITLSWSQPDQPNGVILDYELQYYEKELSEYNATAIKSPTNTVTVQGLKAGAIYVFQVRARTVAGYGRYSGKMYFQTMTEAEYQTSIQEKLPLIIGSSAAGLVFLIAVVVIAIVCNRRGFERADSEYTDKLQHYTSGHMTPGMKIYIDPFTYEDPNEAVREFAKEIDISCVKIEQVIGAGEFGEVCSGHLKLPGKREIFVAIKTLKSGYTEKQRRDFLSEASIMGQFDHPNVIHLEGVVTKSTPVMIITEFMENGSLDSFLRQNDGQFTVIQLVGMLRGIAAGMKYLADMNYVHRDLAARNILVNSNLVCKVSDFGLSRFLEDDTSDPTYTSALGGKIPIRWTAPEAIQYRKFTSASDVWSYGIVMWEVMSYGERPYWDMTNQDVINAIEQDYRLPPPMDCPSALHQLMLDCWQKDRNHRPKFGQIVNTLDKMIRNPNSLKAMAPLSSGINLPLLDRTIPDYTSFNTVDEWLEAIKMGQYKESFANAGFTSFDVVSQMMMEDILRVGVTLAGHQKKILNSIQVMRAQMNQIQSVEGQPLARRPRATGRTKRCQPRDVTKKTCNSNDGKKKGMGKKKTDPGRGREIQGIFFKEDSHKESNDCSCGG

Assay [2] has as its target Proto-oncogene tyrosine-protein kinase Src (Homo sapiens, UniProt P12931).
The next assay addresses Ephrin type-A receptor 7 (Homo sapiens, UniProt Q15375).

The Kd is the free concentration of one partner at which half of the binding sites on the other are occupied at equilibrium, for simple one-to-one binding. Higher therefore signals a looser complex. With `Oc1ccc(-c2nc(-c3ccncc3)c(-c3ccc(F)cc3)[nH]2)cc1` [SB-202190], the Kd (at Ephrin type-B receptor 3; in assay [1]; on Ephrin type-B receptor 2; in assay [2]; at Ephrin type-A receptor 7) was above 10 µM each time.
Consider `COCC(=O)NC/C=C/c1ccc2ncnc(Nc3ccc(Oc4ccc(C)nc4)c(C)c3)c2c1` [CP-724714], for which the Kd (at Ephrin type-B receptor 3; in assay [1]; at Ephrin type-B receptor 2; in assay [2]; at Ephrin type-A receptor 7) was above 10 µM each time.
Turning to `Nc1nc(Nc2ccc(S(N)(=O)=O)cc2)nn1C(=O)c1c(F)cccc1F` [JNJ-7706621], the Kd was above 10 µM on Ephrin type-B receptor 3; 1.4 µM in assay [1]; above 10 µM at Ephrin type-B receptor 2; above 10 µM in assay [2]; 3.1 µM on Ephrin type-A receptor 7.
In the case of `NC(=O)c1ccc(-c2nc(-c3ccc4c(c3)OCO4)c(-c3ccccn3)[nH]2)cc1` [SB-431542], the Kd (on Ephrin type-B receptor 3; in assay [1]; at Ephrin type-B receptor 2; in assay [2]; at Ephrin type-A receptor 7) was above 10 µM throughout.
On to `CCOc1cc2ncc(C#N)c(Nc3ccc(F)c(Cl)c3)c2cc1NC(=O)/C=C/CN(C)C` [PELITINIB], for which the Kd on Ephrin type-B receptor 3 was above 10 µM; in assay [1] it was 7.2 µM; at Ephrin type-B receptor 2, above 10 µM; at Ephrin type-A receptor 7 it was above 10 µM.
